We go through 1 compound from PMC3188562, “Hyperforin Inhibits Akt1 Kinase Activity and Promotes Caspase-Mediated Apoptosis Involving Bad and Noxa Activation in Human Myeloid Tumor Cells” (PLoS ONE, 2011).

The target of the assay is Akt1 (Homo sapiens, UniProt P31749).
Chain of Akt1 (P31749 whole entry): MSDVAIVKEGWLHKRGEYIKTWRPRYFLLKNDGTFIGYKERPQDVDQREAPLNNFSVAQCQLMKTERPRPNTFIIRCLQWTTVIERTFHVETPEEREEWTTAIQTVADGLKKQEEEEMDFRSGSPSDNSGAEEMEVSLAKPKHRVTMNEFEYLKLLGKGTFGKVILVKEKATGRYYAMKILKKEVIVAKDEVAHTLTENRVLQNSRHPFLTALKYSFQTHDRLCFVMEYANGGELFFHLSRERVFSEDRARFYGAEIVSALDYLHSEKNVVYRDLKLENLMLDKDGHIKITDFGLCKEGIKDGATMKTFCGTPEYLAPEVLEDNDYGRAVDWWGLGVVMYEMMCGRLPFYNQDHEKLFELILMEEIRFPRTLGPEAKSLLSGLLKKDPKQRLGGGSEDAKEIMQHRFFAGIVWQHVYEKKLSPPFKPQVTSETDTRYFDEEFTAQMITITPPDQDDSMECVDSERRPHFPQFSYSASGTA

`CC(C)=CCCC1(C)C(CC=C(C)C)CC2(CC=C(C)C)C(=O)C(CC=C(C)C)=C(O)C1(C(=O)C(C)C)C2=O` (stereo not drawn) [HF, 5-hydroxy-6R-methyl-1R,3,7S-tris(3-methyl-2-butenyl)-5S-(2-methyl-1-oxopropyl)-6R-(4-methyl-3-pentenyl)-bicyclo[3.3.1]non-3-ene-2,9 dione]: the midpoint of inhibition, the IC50, lay at 2500 nM. That is a single-digit micromolar value.
